Data reported in patent US20230414735A1, “NEOANTIGENS AND METHODS OF THEIR USE” (priority 2016, published 2023).
Where no end group is shown, it is not given here.

Biological target: HLA class I molecule
Assay: HLA class I peptide binding affinity assay (inhibition of 125I-radiolabeled probe peptide binding to purified HLA)
Set-up: species or system human
Settings: Allele A11.01; read-out: Observed Affinity (IC50; (nM))
Procedure: Epstein-Barr virus (EBV)-transformed homozygous cell lines, fibroblasts, CIR, or 721.22 transfectants are used as sources of HLA class I molecules. […] HLA molecules are purified from lysates by affinity chromatography. The lysates are passed over a column of Sepharose CL-4B beads coupled to an appropriate antibody. […] A 1/25 volume of 2.0 M Tris, pH 6.8, is added to the eluate to reduce the pH to […]. Eluates are then concentrated by centrifugation in Centriprep 30 concentrators (Amicon, Beverly, MA). Protein content is evaluated by a BCA protein assay (Pierce Chemical Co., Rockford, IL) and confirmed by SDS-PAGE.
Following incubation, MHC-peptide complexes are separated from free peptide by gel filtration on 7.8 mm×15 cm TSK200 columns (TosoHaas 16215, Montgomeryville, PA). Because the large size of the radiolabeled peptide used for the DRB1*1501 (DR2w2(31) assay makes separation of bound from unbound peaks more difficult under these conditions, all DRB1*1501 (DR2w2(31) assays were performed using a 7.8 mm×30 cm TSK2000 column eluted at 0.6 mLs/min. The eluate from the TSK columns is passed through a Beckman 170 radioisotope detector, and radioactivity is plotted and integrated using a Hewlett-Packard 3396A integrator, and the fraction of peptide bound is determined.
Radiolabeled peptides are iodinated using the chloramine-T method. […] All subsequent inhibition and direct binding assays are performed using these HLA concentrations.
Since under these conditions [label]<[HLA] and IC50≥[HLA], the measured IC50 values are reasonable approximations of the true KD values. […] For database purposes, and inter-experiment comparisons, relative binding values are compiled. These values can subsequently be converted back into IC50 nM values by dividing the IC50 nM of the positive controls for inhibition by the relative binding of the peptide of interest.
HLA binding assays were used to evaluate either the affinity of interaction of a given epitope with a selected HLA molecule or the stability.
The measurements are plotted against the predicted affinity in FIG. 1.

Row | Compound | IC50 [nM]
1 | AMTTSSSQK | 162

Same assay, conditions: allele A01.01; read-out: Observed Affinity (IC50; (nM))

Row | Compound | IC50 [nM]
2 | CC[C@H](C)[C@H](NC(=O)[C@H](CC(C)C)NC(=O)[C@H](CCC(N)=O)NC(=O)[C@@H](NC(=O)[C@@H](NC(=O)[C@H](CO)NC(=O)[C@@H](NC(=O)[C@H](CC(C)C)NC(=O)[C@@H](N)CS)[C@@H](C)O)[C@@H](C)O)C(C)C)C(=O)N[C@@H](CCSC)C(=O)O | 11000
3 | CSCC[C@H](N)C(=O)N[C@@H](C)C(=O)N[C@@H](CC(N)=O)C(=O)NCC(=O)N[C@@H](CO)C(=O)N[C@@H](CC(C)C)C(=O)N[C@@H](CC(C)C)C(=O)N[C@@H](CC(N)=O)C(=O)N[C@@H](Cc1ccc(O)cc1)C(=O)O | 439
4 | GSNEVTTRY | 606
5 | ILDTAGLEEY | 8.6
6 | CC[C@H](C)[C@H](N)C(=O)N[C@@H](CC(C)C)C(=O)N[C@@H](CC(=O)O)C(=O)N[C@H](C(=O)N[C@@H](C)C(=O)NCC(=O)N[C@@H](CCCCN)C(=O)N[C@@H](CCC(=O)O)C(=O)N[C@@H](CCC(=O)O)C(=O)N[C@@H](Cc1ccc(O)cc1)C(=O)O)[C@@H](C)O | 14.3
7 | LTSTVQLIM | 2890
8 | TTNAFSGEY | 4.4
9 | CLSFLSSWDY | 987
10 | ILDTAGHEEY | 64.2
11 | YTTNAFSGEY | 10.5

Same assay, conditions: allele A02.01; read-out: Observed Affinity (IC50; (nM))

Row | Compound | IC50 [nM]
12 | NVVPLCDLL | 3030
13 | ALMSAMTTS | 139
14 | NVVPLYGLL | 10500
15 | CC[C@H](C)[C@H](NC(=O)[C@H](CC(C)C)NC(=O)[C@H](CCC(N)=O)NC(=O)[C@@H](NC(=O)[C@@H](NC(=O)[C@H](CO)NC(=O)[C@@H](NC(=O)[C@H](CC(C)C)NC(=O)[C@@H](N)CS)[C@@H](C)O)[C@@H](C)O)C(C)C)C(=O)N[C@@H](CCSC)C(=O)O | 716
16 | LLDILDTAGL | 716
17 | GLSISCTTL | 114
18 | LLSTPPLSPS | 1770
19 | FILMELMAGG | 1580
20 | STVQLIMQL | 8540
21 | FQNGKMALS [FQNGKMALS] | 3280
22 | CC[C@H](C)[C@H](NC(=O)[C@@H]1CCCN1C(=O)[C@H](CC(C)C)NC(=O)[C@@H](N)CC(C)C)C(=O)N1CCC[C@H]1C(=O)N1CCC[C@H]1C(=O)N[C@@H](CC(C)C)C(=O)N[C@@H](CO)C(=O)N1CCC[C@H]1C(=O)N[C@@H](CO)C(=O)O | 449
23 | KSLVRLSSCV | 280
24 | IIEYCFYGDL | 1090
25 | LLQVTQTSFA | 677
26 | LATEKSRWSG | 23300
27 | FLLALWECS | 93.2
28 | GMNQRPILT | 3030
29 | IMSLWGLVS | 7320
30 | ALFFFFFET | 471
31 | YIIIEFMTYG | 186

Row | Compound | IC50 [nM]
32 | LQEFDVQEAL [LQEFDVQEAL] | 50300
33 | YLGNHMNIAN | 1340
34 | AQAGVQWRSL | 670
35 | PLYGLLLEML | 797
36 | VRLSSCVPVA | 1210
37 | FELLSTPPL | 225
38 | YITAFFLLDI | 64.5
39 | NVVPLNDLL | 2900
40 | QLIMQLMPFG | 5930
41 | VMSDTTYKI | 19.6
42 | FLSSWDYRRM | 324
43 | LVVVGADGV | 1190
44 | NVVPLSDLL | 916
45 | IIIEFMTYG | 779
46 | IANLLGACTI | 6420
47 | QQSDLQPPA | 70
48 | ALWECSLPQA | 9
49 | QQQSDLQPPA | 646
50 | PLSDLLLEML | 6470

Results, then the compound that gave them:

Row | IC50 [nM] | Compound
51 | 1240 | LVRLSSCVPV
52 | 741 | NVVPLSDLLL
53 | 503 | NSFEVHVCA
54 | 1130 | GMNWRPILT
55 | 141 | ALEEKKGNYV
56 | 6.7 | ILLPEDTPPL
57 | 4560 | FFFSVIFST
58 | 3450 | ILMELMAGGD
59 | 78.7 | ITAFFLLDI
60 | 1060 | SLYIVGFYG
61 | 7490 | ITAFFFCWI
62 | 8.1 | AIQPVLWTT
63 | 59 | ALAPTLTHM
64 | 2.8 | LLPEDTPPL
65 | 39 | ALAPTLTHML
66 | 604 | ALQPLQPHA
67 | 26.5 | KQWSSVTSL
68 | 1200 | VVPLCDLLL
69 | 2550 | VVPLSDLLL
70 | 323 | LLYITAFFLL
71 | 781 | AFSGEYIPTV
72 | 0.4 | FALCGFWQI
73 | 2080 | LLGRNSFEVC
74 | 4190 | NVVPLNDLLL
75 | 289 | KKLMLLRLNL
76 | 4730 | VQWRSLGSL

Same assay, conditions: allele B08.01; read-out: Observed Affinity (IC50; (nM))

Row | Compound | IC50 [nM]
77 | LATEKSRWSG | 46600
78 | FELLSTPPL | 3180
